From patent US20090048196A1, “Membrane receptor for retinol binding protein mediates cellular uptake of vitamin A, methods of use and compositions” (THE REGENTS OF THE UNIVERSITY OF CALIFORNIA, priority 2007, published 2009)

What was measured:
Format in all cases: cell-based
human STRA6 = assay: STRA6 expression in WiDr cells (semi-quantitative PCR); details: 100 nM RNAi oligo, 65 hrs
Procedure: RNAi transfection and retinoic acid treatment of human WiDr colon adenocarcinoma cells: WiDr cells (American Type Culture Collection) were grown in Earle's balanced salt media with 10% FBS at 37° C. in a 95% air/5% CO2 humidified incubator. Human STRA6 RNAi oligo sequences were 5′-[…]-3′ (S-1) (SEQ ID NO:3), 5′-[…]-3′ (S-2) (SEQ ID NO:4); and 5′-[…]-3′ (S-3) (SEQ ID NO:5). Stealth™ negative control RNAi with medium GC (Invitrogen) was used for a negative control. WiDr cells were transfected with 100 nM RNAi oligos using DharmaFect1 (Dharmacon) according to the manufacture's protocol. WiDr Cells were split one day before RNAi transfection and cells were incubated with RNAi oligos for 65 hrs after transfection. Retinoic acid treatment was applied for 55 hours. RNA was isolated from WiDr cells using the RNeasy kit (Qiagen). Reverse transcription was performed with Invitrogen's SuperScriptIII First-Strand Synthesis System. Semi-Quantitative PCR was carried out for 24 cycles at 95° C. for 30 sec (denaturation), 63° C. for 30 sec (annealing), and 72° C. for 30 min (extension). cDNA synthesized from 40 ng of total RNA was used for each reaction. Primers used for PCR to detect human STRA6 were 5′-[…]-3′ (human STRA6 forward primer (SEQ ID NO:6)), 5′-[…]-3′ (human STRA6 reverse primer (SEQ ID NO:7)).

[1] = system: WiDr human colon adenocarcinoma cells; assay: Vitamin A uptake activity of WiDr cells from 3H-retinol/RBP; details: 100 nM RNAi oligo, 65 hrs
Procedure: (§1) Production of ^3H-retinol loaded RBP and retinol uptake assay based on ^3H-retinol/RBP: Apo-RBP was prepared from holo-RBP as described (3). Radioactive retinol (15-^3H(N)-retinol) was purchased from American Radiolabeled Chemicals Inc. Ten micrograms apo-His-RBP was incubated with 150 pmol retinol (3 μCi) at 24° C. overnight. Radiolabeled holo-His-RBP was bound to Ni-NTA resin and the resin was washed extensively with 10 mM imidazole in PBS. Radiolabeled His-RBP was eluted with 100 mM imidazole in PBS. For the vitamin A uptake assay, transfected or untransfected cells grown on 12-well or 24-well cell culture plates were washed once with PBS and incubated with the ^3H-retinol/RBP diluted in SFM for various lengths of time. The reactions were stopped by washing the cells with PBS and solubilizing cells in 1% Triton X-100 in PBS. Radioactivity was measured with a scintillation counter.
Effects of metabolic inhibitors on vitamin A uptake and endocytosis: To test the effect of metabolic inhibitors, cells were pretreated with metabolic inhibitors in serum free medium (50 mM 2-deoxyglucose and 5 mM sodium azide) at 37° C. for 30 min before incubation with ^3H-retinol/RBP for 45 min at 37° C. in the continued presence of the metabolic inhibitors. The slight increase in activity for MI-treated cells as shown in FIGS. 4C and 4D is reproducible. Endocytosis assay based on horseradish peroxidase (HRP) was performed similarly as described. Cells (80-100% confluence) were washed once with PBS and then incubated in SFM with or without metabolic inhibitors for 30 min at 37° C. […]
RNAi transfection and retinoic acid treatment of human WiDr colon adenocarcinoma cells: WiDr cells (American Type Culture Collection) were grown in Earle's balanced salt media with 10% FBS at 37° C. in a 95% air/5% CO2 humidified incubator. […] Semi-Quantitative PCR was carried out for 24 cycles at 95° C. for 30 sec (denaturation), 63° C. for 30 sec (annealing), and 72° C. for 30 min (extension). cDNA synthesized from 40 ng of total RNA was used for each reaction. […]

[2] = system: primary bovine RPE culture; assay: Vitamin A uptake activity of primary bovine RPE culture from holo-RBP; details: 100 nM RNAi oligo, transfected twice, 72 h each
Procedure: as §1
Primary culture and RNAi transfection of bovine RPE cells: Primary cultures of RPE cells were derived from adult bovine eyes obtained from a local slaughterhouse. After the removal of vitreous and retina, the posterior half of the eye was incubated in 2% Dispase solution (Boehringer Mannheim) for 2 h. Sheets of RPE cells were then collected and washed with Hanks' Balanced salt solution (Irvine Scientific). The RPE cells were exposed to 0.05% Trypsin and 0.02% EDTA solution for 5 minutes at room temperature. The RPE cells were suspended in CEM replacement medium containing 10% calf serum and 1% penicillin-streptomycin as described previously (12), and the cells were then seeded at a density of 3×10^5 cells/cm^2 onto 12 mm millicell-PCF culture wells with a pore size of 0.45 um (Millipore Corp.). The RPE cells were maintained at 37° C. in a 5% CO2 incubator for 10 days before RNAi transfection. […] Semi-quantitative PCR was carried out for 26 cycles at 95° C. for 30 sec (denaturation), 60° C. for 30 sec (annealing), and 72° C. for 30 min (extension). cDNA synthesized from 32 ng of total RNA was used for each reaction. […]

bovine STRA6 = assay: STRA6 expression in primary bovine RPE culture (semi-quantitative PCR); details: 100 nM RNAi oligo, transfected twice, 72 h each
Procedure: Primary culture and RNAi transfection of bovine RPE cells: Primary cultures of RPE cells were derived from adult bovine eyes obtained from a local slaughterhouse. After the removal of vitreous and retina, the posterior half of the eye was incubated in 2% Dispase solution (Boehringer Mannheim) for 2 h. Sheets of RPE cells were then collected and washed with Hanks' Balanced salt solution (Irvine Scientific). The RPE cells were exposed to 0.05% Trypsin and 0.02% EDTA solution for 5 minutes at room temperature. The RPE cells were suspended in CEM replacement medium containing 10% calf serum and 1% penicillin-streptomycin as described previously (12), and the cells were then seeded at a density of 3×10^5 cells/cm^2 onto 12 mm millicell-PCF culture wells with a pore size of 0.45 um (Millipore Corp.). The RPE cells were maintained at 37° C. in a 5% CO2 incubator for 10 days before RNAi transfection. For RNAi transfection, bovine RPE cells were washed once with PBS and incubated in fresh DMEM/10% FBS media. Cells were transfected with 100 nM RNAi oligos (Stealth RNAi, Invitrogen) using DharmaFect1 according to manufacturer's protocol and incubated at 37° C. for 72 h. Cells were then transfected under the same conditions and incubated for another 72 h. RNAi oligo sequences used for this assay were 5′-[…]-3′ (S-4) (SEQ ID NO:8), 5′-[…]-3′ (S-5) (SEQ ID NO:9) and 5′-[…]-3′ (S-6) (SEQ ID NO:10). Semi-quantitative PCR was carried out for 26 cycles at 95° C. for 30 sec (denaturation), 60° C. for 30 sec (annealing), and 72° C. for 30 min (extension). cDNA synthesized from 32 ng of total RNA was used for each reaction. Primers used for PCR reaction to detect bovine STRA6 are 5′-[…]-3′ (forward primer (SEQ ID NO:11)), 5′-[…]-3′ (reverse primer (SEQ ID NO:12)).

| Substance | STRA6 expression (human STRA6) | Vitamin A uptake activity [1] | Vitamin A uptake activity [2] | STRA6 expression (bovine STRA6) |
| --- | --- | --- | --- | --- |
| S-2: Human STRA6 RNAi oligo 5′-UAGAUGCAGUGUCUCAAGCAGACGC-3′ (SEQ ID NO:4) (listed as RNA, chemistry not given here) | suppresses | suppresses |  |  |
| S-5: Bovine STRA6 RNAi oligo 5′-GGCUACCACACAUACUGCAACUUCU-3′ (SEQ ID NO:9) (listed as RNA, chemistry not given here) |  |  | suppresses | suppresses |
| S-4: Bovine STRA6 RNAi oligo 5′-CCGUCUACAUUCCACAACAAGGAUU-3′ (SEQ ID NO:8) (listed as RNA, chemistry not given here) |  |  | suppresses | suppresses |
| S-6: Bovine STRA6 RNAi oligo 5′-GAGGAUUCCUAUGACAGCUGGUACA-3′ (SEQ ID NO:10) (listed as RNA, chemistry not given here) |  |  | suppresses | suppresses |
| S-1: Human STRA6 RNAi oligo 5′-UGAAGCUCAUCCAACAGAAUAUGGC-3′ (SEQ ID NO:3) (listed as RNA, chemistry not given here) | suppresses | suppresses |  |  |
| S-3: Human STRA6 RNAi oligo 5′-UGAGUAAGCAGGACAAGACCAAGGC-3′ (SEQ ID NO:5) (listed as RNA, chemistry not given here) | suppresses | suppresses |  |  |
